Laboratory results as given in ChEMBL document CHEMBL1143401, “New small-molecule synthetic antimycobacterials” (Antimicrob Agents Chemother, 2005).
≈ marks a conversion by molar mass, not a printed value.

Columns and labels:
[1] = system: Mycobacterium tuberculosis; assay: Antimycobacterial activity against Mycobacterium tuberculosis H37Rv; assay type: functional
[2] = system: Mycobacterium tuberculosis; assay: Antimycobacterial activity against Mycobacterium tuberculosis; assay type: functional
[3] = target: T1, Enoyl-[acyl-carrier-protein] reductase [NADH] (Mycobacterium tuberculosis) (UniProt P9WGR1); assay: Inhibition of Mycobacterium tuberculosis InhA at 40 uM
T1 sequence (whole entry): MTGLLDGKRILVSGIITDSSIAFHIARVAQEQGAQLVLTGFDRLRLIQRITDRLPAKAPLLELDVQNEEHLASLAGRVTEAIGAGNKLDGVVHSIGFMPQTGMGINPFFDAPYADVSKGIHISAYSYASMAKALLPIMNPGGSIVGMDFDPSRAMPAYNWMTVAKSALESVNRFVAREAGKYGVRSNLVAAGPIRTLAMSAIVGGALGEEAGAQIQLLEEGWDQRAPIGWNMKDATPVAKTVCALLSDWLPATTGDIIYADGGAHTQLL

[4] = Toxicity assessed as haemolysis in RBC; assay type: cell-based, Erythrocyte; details: red blood cells (RBC); read-out: LD50 (the source's name)
[5] = Selectivity index, ratio of MIC for Mycobacterium tuberculosis to cytotoxicity to african green monkey Vero cells; assay type: functional
[6] = system: Mycobacterium tuberculosis; assay: Antimycobacterial activity against Mycobacterium tuberculosis H37Ra; assay type: functional
[7] = Selectivity index, ratio of MIC for Mycobacterium tuberculosis to cytotoxicity to […] V79 cells; assay type: functional
[8] = target: T2, Cell division protein FtsZ (Mycobacterium tuberculosis) (UniProt P9WN95); assay: Inhibition of Mycobacterium tuberculosis FtsZ
T2 sequence (whole entry): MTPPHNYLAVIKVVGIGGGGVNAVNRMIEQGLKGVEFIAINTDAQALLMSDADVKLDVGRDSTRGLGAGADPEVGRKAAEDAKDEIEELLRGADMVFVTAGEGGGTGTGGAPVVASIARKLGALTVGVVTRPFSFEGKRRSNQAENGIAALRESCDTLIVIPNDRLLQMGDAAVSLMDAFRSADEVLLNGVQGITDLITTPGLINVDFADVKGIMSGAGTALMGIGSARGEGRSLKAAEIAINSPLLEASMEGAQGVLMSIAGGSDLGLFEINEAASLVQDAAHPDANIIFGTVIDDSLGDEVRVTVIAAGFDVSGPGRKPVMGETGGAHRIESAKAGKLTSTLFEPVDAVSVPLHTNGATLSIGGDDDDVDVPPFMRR

SMILES	MIC [2] [µg/mL]	also measured
O=[N+]([O-])c1ccc(-c2cnn(-c3nccc(C(F)(F)F)n3)c2)c([N+](=O)[O-])c1	2.5 (≈ 6.57 µM)	MIC [1]: 2.5 µg/mL (≈ 6.57 µM); inhibition [3]: 91%
O=C(COc1cnccn1)N/N=c1\scc(-c2ccc(Br)cc2)n1-c1ccc(Cl)cc1[N+](=O)[O-]	0.3 (≈ 0.534 µM)	HC50 [4]: > 500 µg/mL
COC(=O)c1ccccc1S(=O)(=O)NC(=O)Nc1nc(C)cc(C)n1 [SULFOMETURON METHYL]	0.3 (≈ 0.823 µM)	
[H][C@@]12CC[C@H](C(C)CCC(N)=O)[C@@]1(C)CC[C@]1([H])[C@@]3(C)CC[C@]4(C[C@@]3([H])C[C@@H](OC(C)=O)[C@@]21[H])OOC1(CC[C@@H](C)CC1)OO4 (stereo partly drawn)	3.12 (≈ 5.42 µM)	
c1ccc(-c2ccc(CNc3ccc(CN4CCSCC4)cc3)cc2)cc1	0.5 (≈ 1.33 µM)	
Cc1c(CN2CCN(C)CC2)cc(-c2ccc(Cl)cc2)n1-c1ccc(Cl)cc1	0.7 (≈ 1.69 µM)	Selectivity Index [5]: 5.6
CC(=O)/C(=C/C=C/[C@@H](OCc1ccccc1)[C@H](COCc1ccccc1)OCc1ccccc1)CCl	3.1 (≈ 6.14 µM)	
CC(=O)NCCCC[C@H](OC(C)=O)[C@@H](COC(C)=O)OC(C)=O	≤ 6.25	
COc1ccc(C(=O)Nc2ccc(C(=O)NN3C(=O)CSC3c3ccc(F)cc3)cc2)cc1 (stereo not drawn)	6.25 (≈ 13.4 µM)	
COc1nc2ccc(Br)cc2cc1[C@@H](c1ccccc1)[C@@](O)(CCN(C)C)c1cccc2ccccc12 [BEDAQUILINE]	0.03 (≈ 0.054 µM)	
CN(C)C/C=C(\c1ccc(Br)cc1)c1ccc(-c2ccccc2)cc1	1.6 (≈ 4.08 µM)	MIC [1]: 1.6 µg/mL (≈ 4.08 µM); MIC [6]: 1.6 µg/mL (≈ 4.08 µM); Selectivity Index [7]: <2
O=[N+]([O-])c1c[nH]cc1-c1ccc(Cl)cc1Cl	1 (≈ 3.89 µM)	
CCOC(=O)Nc1cc(NCCCCN(CC)CC)c2nc(-c3ccccc3)c(-c3ccccc3)nc2n1	0.15 (≈ 0.293 µM)	ID50 [8]: 52 µM
O=C(Nc1ncccc1[N+](=O)[O-])c1c(O)cccc1Cl	< 1	
OC12CCCC(C1)SC(c1ccccc1)=N2 (stereo not drawn)	≤ 6.25	
NS#Cc1cc(SCc2ccccc2F)ccn1	1.2 (≈ 4.31 µM)	
CC(=O)NC[C@H]1CN(c2ccc(N3CCSCC3)c(F)c2)C(=O)O1 [SUTEZOLID]	≤ 0.125	

SMILES	MIC [2] [µg/mL]	also measured
Cc1ccc2nc(SCc3cc([N+](=O)[O-])cc([N+](=O)[O-])c3)[nH]c2c1	1.3 (≈ 3.78 µM)	
S=c1oc2c(Cl)cc(Cl)cc2c(=S)n1-c1cccc(Cl)c1	4 (≈ 10.7 µM)	
CC1Nc2nc(NC(=O)Oc3ccccc3)cc(N)c2N=C1c1ccccc1 (stereo not drawn)	1.3 (≈ 3.48 µM)	
Clc1nc(C2CCCO2)c2ncn(Cc3ccccc3)c2n1 (stereo not drawn)	0.78 (≈ 2.48 µM)	Selectivity Index [5]: 10.6
CN(C)S(=O)(=O)n1cnc2c(=S)[nH]cnc21	0.78 (≈ 3.01 µM)	
CCCCCCCCCCS(=O)(=O)CC(N)=O	0.75 (≈ 2.85 µM)	
CCCCCCCCCCNC[C@H]1O[C@H](O[C@H]2O[C@H](CNCCCCCCCCCC)[C@@H](O)[C@H](O)[C@H]2O)[C@H](O)[C@@H](O)[C@@H]1O	1.3 (≈ 2.09 µM)	
O=[N+]([O-])c1cn2c(n1)OC[C@@H](OCc1ccc(OC(F)(F)F)cc1)C2 [PRETOMANID]	0.13 (≈ 0.362 µM)	
N#Cc1c(N2CCN(c3ccc([N+](=O)[O-])cc3)CC2)[n+]([O-])c2ccccc2[n+]1[O-]	0.1 (≈ 0.255 µM)	
CC1(C)O[C@H]2OC(COCC(O)CNCCCCCCCCCCCCNCC(O)COCC3O[C@@H]4OC(C)(C)O[C@@H]4[C@H]4OC(C)(C)O[C@@H]34)[C@@H]3OC(C)(C)O[C@@H]3[C@H]2O1 (stereo partly drawn)	1.56 (≈ 1.87 µM)	
CCCSc1nc(Cl)c(C#N)c(-c2ccc(F)cc2)n1	0.78 (≈ 2.53 µM)	
CCCCCCCCCCCCCCCCOCCCCOP(=O)(O)C[C@@H]1O[C@H](CO)[C@@H](O)[C@@H]1O	3.13 (≈ 5.97 µM)	
CC(C)c1ccc(-c2c(N)nnc3c2c2ccccc2n3C)cc1	1.42 (≈ 4.49 µM)	
CCCCCCCCCCCCCCCCN[C@H](CC(=O)OCC)[C@@H]1O[C@@H]2OC(C)(C)O[C@@H]2C1OC (stereo partly drawn)	3.12 (≈ 6.07 µM)	
c1ccc(-c2ccc(CNc3cccc(-c4c[nH]cn4)c3)cc2)cc1	4 (≈ 12.3 µM)	Selectivity Index [5]: 16
CCCCOc1ccc2nc(C)cc(N/N=C/c3cccc4c(OC)cccc34)c2c1	0.78 (≈ 1.89 µM)	
